This is an account of results in US20100305124A1, “Acylated Aminopyridine and Aminopyridazine Insecticides” (BAYER CROPSCIENCE AG, priority 2009, published 2010).

The first test concerns green peach aphid (Myzus persicae). The test can be described thus: Myzus test (MYZUPE spray treatment), Chinese cabbage leaf discs. The test is classed as in vivo. Particulars: foliar, application rate of 500 g/ha, spray on Chinese cabbage discs, read-out: effect in % (aphids killed). As for the experimental part:
Myzus Test (MYZUPE Spray Treatment)
Solvents: 78 parts by weight of acetone • • 1.5 parts by weight of dimethylformamide Emulsifier: 0.5 part by weight of alkylaryl polyglycol ether
An appropriate preparation of active ingredient is prepared by mixing 1 part by weight of active ingredient with the stated amounts of solvents and emulsifier and diluting the concentrate with emulsifier-containing water to the desired concentration.
Discs of Chinese cabbage (Brassica pekinensis) infested with all stages of the green peach aphid (Myzus persicae) are sprayed with a preparation of active ingredient at the desired concentration.
After the desired time, the effect in % is determined. Here, 100% means that all of the aphids have been killed; 0% means that no aphids have been killed.
As for `O=C(Nc1cccnc1)c1cnn(CC(F)(F)F)c1C(F)(F)F` [I-282], the pest or weed control at 500 g/ha is at least 80%.
The same measure, in the same setting: the result for `CC(=O)Nc1cccc(C(=O)N(C)c2cccnc2)c1` [I-283] reads at least 80%; that for `CC(C)n1ncc(C(=O)Nc2cccnc2)c1C(F)(F)F` [I-285], at least 80%; that for `CC(C)C(=O)Nc1cccc(C(=O)Nc2cccnc2)c1` [I-286], at least 80%.
Take `CCn1ncc(C(=O)Nc2cccnc2)c1C(F)(F)F` [I-287]: the pest or weed control at 500 g/ha is at least 80%.
Still for that read-out and setting: the result for `Cc1ccc(C(=O)Nc2cccnc2)cc1NC(=O)C1CC1` [I-292] reads at least 80%; that for `COc1ccc(C(=O)Nc2cccnc2)cc1NC(=O)C1CC1` [I-293], at least 80%.
Regarding `COc1ccc(C(=O)N(C)c2cccnc2)cc1[N+](=O)[O-]` [I-294], the pest or weed control at 500 g/ha is at least 80%.
Same read-out and setting: the result for `Cc1ccc(C(=O)N(C)c2cccnc2)cc1[N+](=O)[O-]` [I-295] reads at least 80%; that for `COc1ccc(C(=O)N(C)c2cccnc2)cc1NC(=O)C(C)C` [I-297], at least 80%.
For `CC(C)C(=O)Nc1cc(C(=O)N(C)c2cccnc2)ccc1F` [I-298], the pest or weed control at 500 g/ha is at least 80%.
On the same count and under the same terms, for `CC(C)C(=O)Nc1cc(C(=O)N(C)c2cccnc2)ccc1Cl` [I-299] the value was at least 80%.
As to `Cc1ccc(C(=O)N(C)c2cccnc2)cc1NC(=O)C(C)C` [I-300, 3-Isobutyrylamino-4,N-dimethyl-N-pyridin-3-ylbenzamide], the pest or weed control at 500 g/ha was at least 80%.
In the case of `CN(C(=O)c1ccc(F)c(NC(=O)C2CC2)c1)c1cccnc1` [I-301], the pest or weed control at 500 g/ha is at least 80%.
As for `CN(C(=O)c1ccc(Cl)c(NC(=O)C2CC2)c1)c1cccnc1` [I-302], the pest or weed control at 500 g/ha is at least 80%.
On to `COc1ccc(C(=O)N(C)c2cccnc2)cc1NC(=O)C(C)(C)C` [I-303], for which the pest or weed control at 500 g/ha is at least 80%.
With `Cc1ccc(C(=O)N(C)c2cccnc2)cc1NC(=O)C(C)(C)C` [I-305], the pest or weed control at 500 g/ha was at least 80%.
On to `CC(=O)Nc1cc(C(=O)N(C)c2cccnc2)ccc1Cl` [I-307], for which the pest or weed control at 500 g/ha was at least 80%.
Regarding `CC(=O)Nc1cc(C(=O)N(C)c2cccnc2)ccc1C` [I-308], the pest or weed control at 500 g/ha is at least 80%.
As for `CCC(=O)Nc1cc(C(=O)N(C)c2cccnc2)ccc1C` [I-310], the pest or weed control at 500 g/ha is at least 80%.
Take `CCC(C)C(=O)Nc1cc(C(=O)N(C)c2cccnc2)ccc1C` (stereo not shown) [I-311]: the pest or weed control at 500 g/ha was at least 80%.
`Cc1ccc(C(=O)N(C)c2cccnc2)cc1NC(=O)C1CCCC1` [I-312]: the pest or weed control at 500 g/ha is at least 80%.
On to `Cc1ccc(C(=O)N(C)c2cccnc2)cc1NC(=O)NC(C)C` [I-314], for which the pest or weed control at 500 g/ha is at least 80%.
Take `CCCC(=O)Nc1cc(C(=O)N(C)c2cccnc2)ccc1C` [I-315]: the pest or weed control at 500 g/ha is at least 80%.
For `Cc1ccc(C(=O)N(C)c2cccnc2)cc1NC(=O)OC(C)C` [I-316], the pest or weed control at 500 g/ha is at least 80%.
Take `C/C=C/C(=O)Nc1cc(C(=O)N(C)c2cccnc2)ccc1C` [I-317]: the pest or weed control at 500 g/ha is at least 80%.
With `CC(C)=CC(=O)Nc1cc(C(=O)N(C)c2cccnc2)ccc1C` [I-318], the pest or weed control at 500 g/ha was at least 80%.
Take `CN(C(=O)c1cn(C)nc1C(F)F)c1ccnnc1` [I-319]: the pest or weed control at 500 g/ha is at least 80%.
For `CC(F)c1nn(C)cc1C(=O)N(C)c1ccnnc1` (stereo not shown) [I-321], the pest or weed control at 500 g/ha is at least 80%.
Take `CN(C(=O)c1cn(C)nc1C(F)(F)F)c1ccnnc1` [I-322]: the pest or weed control at 500 g/ha was at least 80%.
In the case of `CC(C)c1nn(C)cc1C(=O)N(C)c1ccnnc1` [I-323], the pest or weed control at 500 g/ha is at least 80%.
Turning to `CN(C(=O)c1cn(C)nc1C1CC1)c1ccnnc1` [I-324], the pest or weed control at 500 g/ha is at least 80%.
Regarding `CCc1nn(C)cc1C(=O)N(C)c1ccnnc1` [I-326], the pest or weed control at 500 g/ha is at least 80%.
Same read-out and setting: the result for `CCn1cc(C(=O)N(C)c2ccnnc2)c(C)n1` [I-327] reads at least 80%.
Still for that read-out and setting: for `CC(C)n1ncc(C(=O)N(C)c2cccnc2)c1C(F)(F)F` [I-329] the value was at least 80%; for `CN(C(=O)c1cnn(CC(F)(F)F)c1C(F)(F)F)c1cccnc1` [I-330], at least 80%.
As for `CCC(=O)Nc1cc(C(=O)N(C)c2cccnc2)ccc1OC` [I-331], the pest or weed control at 500 g/ha was at least 80%.
On to `CCC(C)C(=O)Nc1cc(C(=O)N(C)c2cccnc2)ccc1OC` (stereo not shown) [I-332], for which the pest or weed control at 500 g/ha was at least 80%.
With `COc1ccc(C(=O)N(C)c2cccnc2)cc1NC(=O)C1CCCC1` [I-333], the pest or weed control at 500 g/ha was at least 80%.
On the same count and under the same terms, the result for `COc1ccc(C(=O)N(C)c2cccnc2)cc1NS(=O)(=O)C(C)C` [I-334] reads at least 80%; that for `COCC(=O)Nc1cc(C(=O)N(C)c2cccnc2)ccc1OC` [I-335], at least 80%; that for `CCCC(=O)Nc1cc(C(=O)N(C)c2cccnc2)ccc1OC` [I-336], at least 80%.
For the molecule `COc1ccc(C(=O)N(C)c2cccnc2)cc1NC(=O)OC(C)C` [I-337], the pest or weed control at 500 g/ha was at least 80%.

The test is the same for the next values; noted with them: foliar, application rate of 500 ppm, spray on Chinese cabbage discs, read-out: effect in % (aphids killed).
As for `CC(C)C(=O)Nc1cccc(C(=O)N(C)c2cccnc2)c1` [I-284], the pest or weed control at 500 ppm was at least 80%.
With `CN(C(=O)c1ccc(S(C)(=O)=O)c(N)c1)c1cccnc1` [I-296], the pest or weed control at 500 ppm was at least 80%.

In a further test the test system is common spider mite (Tetranychus urticae). The test can be described thus: Tetranychus test (TETRUR), sprayed French bean plants. The test is classed as in vivo. Particulars: application rate of 500 ppm; spray on French bean plants. The procedure:
Tetranychus Test (TETRUR) Solvent: 3 parts by weight of dimethylformamide Emulsifier: 1 part by weight of polyoxyethylenealkyl phenyl ether An appropriate preparation of active ingredient is prepared by mixing 1 part by weight of active ingredient with the stated amount of solvent and emulsifier and diluting the concentrate with water to the desired concentration. French bean (Phaseolus vulgaris) plants are infested with a mixed population of the common spider mite (Tetranychus urticae) and sprayed with the preparation of active ingredient at the desired concentration. After the desired time, the effect in % is determined: here, 100% means that all of the spider mites have been killed. Conversely, 0% means that no spider mites have been killed.
Regarding `CN(C(=O)c1ccc(Oc2ccc(C(C)(C)C)cc2)nc1)c1cccnc1` [I-127], the “effect in % (spider mites killed)” value was at least 80%.
